Test results as given in patent US11014915B2, “Selective estrogen receptor degrader” (SUN PHARMA ADVANCED RESEARCH COMPANY LIMITED, priority 2019, dated 2021).
Positions count from the first letter of the chain named.

Legend:
Type in all cases: cell-based
[1] = target: T1, ER-α in MCF-7 cells harboring mutant ER (WT/D538G) (Homo sapiens, UniProt P03372, D538G); assay: ER-α degradation (SERD) assay, MCF-7 D538G; settings: for DC50: MCF-7 D538G, 4 days, read-out: ER-α degradation assay D538G IC50
T1 construct: MCF-7 cells harboring mutant ER (WT/D538G and WT/Y537S); endogenous in cells; host or cells: MCF-7 D538G (WT/D538G)
T1 sequence (P03372 1-595 D538G): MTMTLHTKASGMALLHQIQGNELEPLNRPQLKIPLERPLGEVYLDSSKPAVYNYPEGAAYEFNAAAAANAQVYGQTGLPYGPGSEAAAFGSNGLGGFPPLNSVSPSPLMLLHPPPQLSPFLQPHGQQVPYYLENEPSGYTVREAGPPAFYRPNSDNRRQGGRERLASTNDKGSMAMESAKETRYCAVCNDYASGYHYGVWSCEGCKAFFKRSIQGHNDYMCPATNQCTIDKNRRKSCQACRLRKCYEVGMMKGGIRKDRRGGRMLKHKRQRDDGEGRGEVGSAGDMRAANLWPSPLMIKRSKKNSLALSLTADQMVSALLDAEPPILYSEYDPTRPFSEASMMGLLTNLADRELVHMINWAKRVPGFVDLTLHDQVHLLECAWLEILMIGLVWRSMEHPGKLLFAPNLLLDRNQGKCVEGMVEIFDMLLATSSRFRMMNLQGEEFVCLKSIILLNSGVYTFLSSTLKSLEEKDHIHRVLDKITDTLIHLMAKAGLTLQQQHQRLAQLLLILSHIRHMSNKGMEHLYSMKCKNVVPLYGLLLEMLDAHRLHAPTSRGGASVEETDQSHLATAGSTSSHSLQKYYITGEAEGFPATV
Experimental: (§1) Selective Estrogen Receptor Degradation (SERD) Assay:
(§2) The SERD activity for the test compounds was evaluated in MCF-7 cells harboring ER wild type, and MCF-7 cells harboring mutant ER (WT/D538G and WT/Y537S). Briefly, cells were plated in phenol red free RPMI1640 medium supplemented with 5% charcoal stripped fetal bovine serum. The seeding density was 40000 cells/well for MCF-7 WT and MCF-7 D538G and 50000 cells/well MCF-7 Y537S in a 48-well plate. Following overnight incubation, the cells were treated with varying concentrations of test compounds (final concentration: 1000 nM to 0.01 nM, 0.1% DMSO) for 4 days. The cells were lysed using PBS supplemented with 1 mM EDTA, 0.5% Triton X-100, 5 mM NaF, 6 M urea, and 1× Protease inhibitor cocktail. The lysate was analyzed for ER alpha protein using western blot. For the western blot, the cell lysate (12.5-40 μg total protein) was resolved on a 10% SDS PAGE and transferred onto a PVDF membrane. The blots were blocked using 5% skim milk powder in 0.1% PBS-T for 1 hour at room temperature, followed by co-incubation with rabbit anti-human β-actin antibody and rabbit anti-human ERα antibody for 2 hours at room temperature. The blots were subsequently probed with anti-rabbit IgG-HRP conjugate as secondary antibody for 1 hour at room temperature. The blots were developed by using West Pico Super Signal Chemiluminescence substrate and the bands were processed for densitometry analysis using Image Lab software (BioRad version 6.0.0). ERα band intensity was normalized to that housekeeping protein for respective samples. The % ER remaining was calculated by normalizing against the vehicle control (as 100%).

[2] = target: T2, ER-α in MCF-7 cells harboring ER wild type (Homo sapiens, UniProt P03372); assay: ER-α degradation (SERD) assay, MCF-7 wild type; settings: for % of ER-α remaining at 1 nM / DC50: MCF-7 Wt, 4 days; for % of ER-α remaining at 1 nM: western blot, vehicle control as 100%; for DC50: read-out: ER-α degradation assay Wt IC50
T2 construct: evaluated in MCF-7 cells harboring ER wild type; endogenous in cells; host or cells: MCF-7
T2 sequence (P03372 1-595): T1 sequence (P03372 1-595 D538G) with G538D
Experimental: as §1, §2

[3] = target: T3, ER-α in MCF-7 cells harboring mutant ER (WT/Y537S) (Homo sapiens, UniProt P03372, Y537S); assay: ER-α degradation (SERD) assay, MCF-7 Y537S; settings: for DC50: MCF-7 Y537S, 4 days, read-out: ER-α degradation assay Y537S IC50
T3 construct: MCF-7 cells harboring mutant ER (WT/D538G and WT/Y537S); endogenous in cells; host or cells: MCF-7 Y537S (WT/Y537S)
T3 sequence (P03372 1-595 Y537S): T1 sequence (P03372 1-595 D538G) with Y537S, G538D
Experimental: as §1, §2

| ER-α degradation in mutated cell line (in words) ([1]; D538G) | DC50 [1] | % of ER-α remaining at 1 nM [2] | DC50 [2] | DC50 [3] | ER-α degradation in mutated cell line (in words) ([3]; Y537S) | Potency of Formula Ia relative to Formula Ib in ER-α degradation ([2]; wild type) | Structure (SMILES) |
| --- | --- | --- | --- | --- | --- | --- | --- |
| no ER-α degradation | > 1000 nM | 81.5% | 10.2 nM | > 1000 nM | no ER-α degradation | – | CC1=C(c2cc(F)cc(F)c2)[C@@H](c2ccc(/C=C/CN3CC(CF)C3)cc2)Oc2cc(O)ccc21 [Formula Ib, (2R)-3-(3,5-difluorophenyl)-2-[4-[(E)-3-[3-(fluoromethyl)azetidin-1-yl]prop-1-enyl]phenyl]-4-methyl-2H-chromen-7-ol] |
| – | 12.7 nM | 16.3% | 0.3 nM | 19.6 nM | – | about 34 times | CC1=C(c2cc(F)cc(F)c2)[C@H](c2ccc(/C=C/CN3CC(CF)C3)cc2)Oc2cc(O)ccc21 [Formula Ia, (2S)-3-(3,5-difluorophenyl)-2-[4-[(E)-3-[3-(fluoromethyl)azetidin-1-yl]prop-1-enyl]phenyl]-4-methyl-2H-chromen-7-ol] |
